Measured values as given in patent US8946299B2, “Use of calixarenes associated with an antibiotic in the treatment of bacterial infections” (Universite de Lorraine, priority 2011, dated 2015).
Each block holds one compound with its values, some of them ahead of it.

Assays:
[1] = tested on: Pseudomonas aeruginosa strain ATCC 27853 (wild type); experiment: Chessboard technique: MICs alone and synergism of Cx1 combinations; type: cell-based; conditions: antibiotic used alone; second figure of the cell; n = 4
Source text: (§1) Three reference strains were used, corresponding to those studied for the MICs and MBCs (Minimum Bactericidal Concentration): Escherichia coli ATCC 25922, Staphylococcus aureus ATCC 29213, Pseudomonas aeruginosa ATCC 27853. For each of these strains 3 corresponding clinical isolates were chosen, having various antibiotic-resistance profiles, routinely used in standard fashion: • EcR1, EcR2, EcR3; • SaR1, SaR3, SaR4; • PaR2, PaR3, PaR5.
(§2) 1.3. Procedure: Chessboard Technique
(§3) The bacterial suspension is transferred to a 15 mL Falcon tube, centrifuged for 10 min at 4500 g, then the pellet is re-suspended in 1 mL of sterile distilled water. Suitable dilutions are then prepared in order to obtain a bacterial inoculum between 5·10^5 and 5·10^6 CFU/mL.
(§4) The MICs of the antibiotics were previously determined for each strain, by the method of microdilution in a liquid medium (CLSI (Clinical and Laboratory Standards Institute), 2003).
(§5) The same procedure is followed for the Cx1. […] Thus 64 ATB/Cx1 combinations are obtained.
(§6) The final volume contained in each of the wells must be 100 μL. Two controls must be present on each plate: • column 1 and 12: medium control • column 2 and 11: medium+bacteria control
(§7) Cx1: […] in the wells of […], starting with the lowest concentration.
(§8) ATB: 25 μL in the wells of rows H to A (columns 3 to 11), starting with the lowest concentration.
(§9) 50 μL in each of the wells of columns 2 to 11.
(§10) D2: Reading the Turbidity at 540 Nm.
(§11) The FIC (Fractional Inhibitory Concentration Index) value is determined by the following formula:
(§12) [formula] MICA in combination MICA alone MICB in combination MICB alone
(§13) When FIC≦0.5, there is a synergistic effect between antibiotic A and antibiotic B.
(§14) When 0.5<FIC≦1, there is an additive effect between antibiotic A and antibiotic B.
(§15) When 1<FIC≦4, there is an indifferent effect between antibiotic A and antibiotic B.
(§16) When FIC>4, there is an antagonistic effect between antibiotic A and antibiotic B.
(§17) For each strain and each antibiotic/Cx1 combination, the experiments were repeated a minimum of 3 times.

[2] = tested on: ESBL-producing strain of Escherichia coli (EcR3); experiment: as above; type: cell-based; conditions: antibiotic used alone; second figure of the cell; n = 4
Source text: as §1, §2, §3, §4, §5, §6, §7, §8, §9, §10, §11, §12, §13, §14, §15, §16, §17

[3] = tested on: Pseudomonas aeruginosa strain having a resistance to β-lactams (including the carbapenems), aminoglycosides, the trimethoprim-sulphamethoxazole combination and …; experiment: as above; type: cell-based; conditions: antibiotic used alone; second figure of the cell; n = 4
Source text: as §1, §2, §3, §4, §5, §6, §7, §8, §9, §10, §11, §12, §13, §14, §15, §16, §17

[4] = tested on: Staphylococcus aureus strain ATCC 29213 (wild type); experiment: as above; type: cell-based; conditions: antibiotic used alone; second figure of the cell; n = 4
Source text: as §1, §2, §3, §4, §5, §6, §7, §8, §9, §10, §11, §12, §13, §14, §15, §16, §17

[5] = tested on: mucoid strain of Pseudomonas aeruginosa having a resistance to rifampicin and the trimethoprim-sulphamethoxazole combination (PaR5); experiment: as above; type: cell-based; conditions: antibiotic used alone; second figure of the cell; n = 4
Source text: as §1, §2, §3, §4, §5, §6, §7, §8, §9, §10, §11, §12, §13, §14, §15, §16, §17

[6] = tested on: Pseudomonas aeruginosa strain having a resistance to β-lactams, the trimethoprim-sulphamethoxazole combination and fosfomycin (PaR2); type: cell-based; conditions: antibiotic used alone; second figure of the cell; n = 4
Source text: as §1, §2, §3, §4, §5, §6, §7, §8, §9, §10, §11, §12, §13, §14, §15, §16, §17

[7] = tested on: EcR1: Penicillinase-Producing Escherichia coli without Associated Resistance; experiment: Antibiogram by the disk diffusion technique; type: cell-based; conditions: for Results (diameter): Table A1, category from diameter vs Dmin Dmax; for diameter in mm: Table A2, diameter
Experimental: (§18) 5. Identification and Antibiogram 5.1 EcR1: Penicillinase-Producing Escherichia coli without Associated Resistance
(§19) The bacterial and antibiogram identification is carried out by the VITEK 2 system (bioMérieux) and by the disk diffusion technique.

[8] = tested on: EcR1: Penicillinase-Producing Escherichia coli without Associated Resistance; experiment: Antibiogram, MIC by the VITEK 2 system; type: cell-based; conditions: Table A1, category from MIC
Experimental: as §18, §19

[9] = tested on: Escherichia coli, Staphylococcus aureus and Pseudomonas aeruginosa strains; experiment: Chessboard technique, summary over all strains and combinations tested; type: cell-based
Source text: as §1, §2
The FIC (Fractional Inhibitory Concentration Index) value is determined by the following formula: […]
as §17

[10] = tested on: MRSA strain having a resistance to the aminoglycosides, fluoroquinolones, macrolides-lincosamides-synergistins and ofloxacin (SaR4); experiment: Chessboard technique: MICs alone and synergism of Cx1 combinations; type: cell-based, Staphylococcus aureus; conditions: antibiotic used alone; second figure of the cell; n = 4
Source text: as §1, §2, §3, §4, §5, §6, §7, §8, §9, §10, §11, §12, §13, §14, §15, §16, §17

[11] = tested on: MRSA strain having a resistance to the aminoglycosides and fluoroquinolones (SaR3); experiment: as above; type: cell-based, Staphylococcus aureus; conditions: antibiotic used alone; second figure of the cell; n = 4
Source text: as §1, §2, §3, §4, §5, §6, §7, §8, §9, §10, §11, §12, §13, §14, §15, §16, §17

[12] = tested on: MRSA strain without associated resistance (SaR1); experiment: as above; type: cell-based, Staphylococcus aureus; conditions: antibiotic used alone; second figure of the cell; n = 4
Source text: as §1, §2, §3, §4, §5, §6, §7, §8, §9, §10, §11, §12, §13, §14, §15, §16, §17

SMILES: NCC[C@H](O)C(=O)N[C@@H]1C[C@H](N)[C@@H](O[C@H]2O[C@H](CN)[C@@H](O)[C@H](O)[C@H]2O)[C@H](O)[C@H]1O[C@H]1O[C@H](CO)[C@@H](O)[C@H](N)[C@H]1O [Amikacin]
MIC (antibiotic) [1]: 0.5 µg/mL
Initial MICs (antibiotic) [2]: 1 mg/L
MIC (antibiotic) [3]: 1 mg/L
Initials MIC (antibiotic) [4]: 1 µg/mL
MIC (antibiotic) [5]: 0.5 µg/mL
MIC (antibiotic) [6]: 1 µg/mL
Results (diameter) [7]: Susceptible
Results (MIC) [8]: Susceptible

SMILES: C[C@H]1[C@H](NC(=O)/C(=N\OC(C)(C)C(=O)O)c2csc(N)n2)C(=O)N1S(=O)(=O)O [Aztreonam]
Results (diameter) [7]: Susceptible
diameter in mm [7]: 28 mm

SMILES: CO/N=C(\C(=O)N[C@@H]1C(=O)N2C(C(=O)[O-])=C(C[N+]3(C)CCCC3)CS[C@H]12)c1csc(N)n1 [Cefepime]
Results (diameter) [7]: Susceptible
diameter in mm [7]: 27 mm

SMILES: O=C(O)c1cn(C2CC2)c2cc(N3CCNCC3)c(F)cc2c1=O [Ciprofloxacin]
Results (diameter) [7]: Susceptible

SMILES: C[C@@H](O)[C@H]1C(=O)N2C(C(=O)O)=C(SCCN=CN)C[C@H]12 [Imipenem]
MIC (antibiotic) [1]: 2 µg/mL
MIC (antibiotic) [3]: 32/32 mg/L
MIC (antibiotic) [5]: 2 µg/mL
MIC (antibiotic) [6]: 2 µg/mL
MIC (antibiotic) [10]: 2 µg/mL

SMILES: CN(C)c1ccc(O)c2c1C[C@H]1C[C@H]3[C@H](N(C)C)C(O)=C(C(N)=O)C(=O)[C@@]3(O)C(O)=C1C2=O [Minocycline]
diameter in mm [7]: 20 mm

SMILES: CCn1cc(C(=O)O)c(=O)c2ccc(C)nc21 [Nalidixic acid]
Results (MIC) [8]: Susceptible

SMILES: CN(C)c1cc(NC(=O)CNC(C)(C)C)c(O)c2c1C[C@H]1C[C@H]3[C@H](N(C)C)C(O)=C(C(N)=O)C(=O)[C@@]3(O)C(O)=C1C2=O [Tigecycline]
nature of the interaction between Cx1 and the antibiotic [9]: synergism

The next lines start with results.

Results (MIC) [8]: Susceptible
SMILES: CC(=O)OCC1=C(C(=O)O)N2C(=O)[C@@H](NC(=O)Cc3cccs3)[C@H]2SC1 [C1G, Cefalotine]
Results (diameter) [7]: Intermediate

Initials MIC (antibiotic) [4]: 2 µg/mL
MIC (antibiotic) [10]: 4 µg/mL
SMILES: CC(=O)O[C@H]1C[C@@]2(C)[C@@H](C[C@@H](O)[C@H]3[C@@]4(C)CC[C@@H](O)[C@@H](C)[C@@H]4CC[C@@]32C)/C1=C(\CCC=C(C)C)C(=O)O [Fusidic acid]
nature of the interaction between Cx1 and the antibiotic [9]: synergism

MIC (antibiotic) [11]: 8/8 mg/L
SMILES: C[C@H]1COc2c(N3CCN(C)CC3)c(F)cc3c(=O)c(C(=O)O)cn1c23 [Levofloxacin]

Initials MIC (antibiotic) [4]: 2 µg/mL
MIC (antibiotic) [11]: 2 mg/L
MIC (antibiotic) [12]: 2 µg/mL
MIC (antibiotic) [10]: 2 µg/mL
SMILES: CC(=O)NC[C@H]1CN(c2ccc(N3CCOCC3)c(F)c2)C(=O)O1 [Linezolid]

Results (MIC) [8]: Susceptible
SMILES: CCN[C@@H]1C[C@H](N)[C@@H](O[C@H]2OC(CN)=CC[C@H]2N)[C@H](O)[C@H]1O[C@H]1OC[C@](C)(O)[C@H](NC)[C@H]1O [Netilmicin]
Results (diameter) [7]: Susceptible

Results (MIC) [8]: Susceptible
SMILES: CCn1cc(C(=O)O)c(=O)c2cc(F)c(N3CCNCC3)cc21 [Norfloxacin]

Initials MIC (antibiotic) [4]: 4 µg/mL
MIC (antibiotic) [11]: 4 mg/L
MIC (antibiotic) [12]: 4 µg/mL
MIC (antibiotic) [10]: 4 µg/mL
SMILES: [H]/N=C(/N)N[C@H]1[C@H](O)[C@@H](O)[C@H](O[C@@H]2O[C@@H](C)[C@](O)(C=O)[C@H]2O[C@@H]2O[C@@H](CO)[C@H](O)[C@@H](O)[C@@H]2NC)[C@@H](N/C(N)=N\[H])[C@@H]1O [Streptomycin]
nature of the interaction between Cx1 and the antibiotic [9]: synergism

Results (MIC) [8]: Resistant
SMILES: CC1(C)S[C@@H]2[C@H](NC(=O)[C@H](C(=O)O)c3ccsc3)C(=O)N2[C@H]1C(=O)O [Ticarcillin]
Results (diameter) [7]: Resistant
